According to patent US9611277B2 (Janssen Pharmaceutica NV, priority 2013, dated 2017):
Read-outs that look alike come from different tables or passages of the source.

Experiments:
[1] = target: rat orexin 1 receptor (Rattus norvegicus, UniProt P56718); assay: Rat orexin 1 receptor radioligand binding
Procedure: (§1) Data are analyzed using pc-Sandy macro and graphed on Graphpad Prism 5. For analysis, each concentration point is averaged from triplicate values and the averaged values are plotted on Graphpad Prism. The IC50 was determined by applying the following equation (GraphPad Prism 5.0, SanDiego) for one site competition where X=log (concentration) and Y=specific binding. Top denotes the total [^3H]-(1-(5-(2-fluoro-phenyl)-2-methyl-thiazol-4-yl)-1-((S)-2-(5-phenyl-(1,3,4)oxadiazol-2-ylmethyl)-pyrrolidin-1-yl)-methanone) binding, bottom denotes the nonspecific [^3H]-(1-(5-(2-fluoro-phenyl)-2-methyl-thiazol-4-yl)-1-((S)-2-(5-phenyl-(1,3,4)oxadiazol-2-ylmethyl)-pyrrolidin-1-yl)-methanone) binding. Graphpad Prism calculates Ki value from IC50 and the pre-determined Kd values for [^3H]-(1-(5-(2-fluoro-phenyl)-2-methyl-thiazol-4-yl)-1-((S)-2-(5-phenyl-(1,3,4)oxadiazol-2-ylmethyl)-pyrrolidin-1-yl)-methanone) and [3H]-EMPA. The Ki for each compound is then uploaded into 3DX. Each run comprises individual compounds in triplicate. The data in Table 1 and Table 2 represent averages from between 2-20 runs
Rat and Human Orexin 1 Receptor Radioligand Binding Studies
(§2) After centrifugation (2K×G, 5 min at 4° C.), the supernatant was aspirated and the pellets frozen and stored at −80° C. […] Each cell pellet from a 15 cm plate was resuspended in 10 mL, stored on ice, and homogenized for 45 sec prior to addition to the reactions. […] The final concentration of DMSO in the reactions is equal to or less than 0.1%. Total and nonspecific binding was determined in the absence and presence of 10 μM almorexant. The total volume of each reaction is 200 μL (20 μL of diluted compounds, 80 μL of [^3H]-(1-(5-(2-fluoro-phenyl)-2-methyl-thiazol-4-yl)-1-((S)-2-(5-phenyl-(1,3,4)oxadiazol-2-ylmethyl)-pyrrolidin-1-yl)-methanone) diluted in PBS and 100 μL of the cell suspension). […] The plates were washed 3 times by aspirating 30 ml PBS through the plates. Plates were dried in 55° C. oven for 60 min, scintillation fluid was added, and the radioactivity was counted on a Topcount (Packard).

[2] = target: human orexin 2 receptor (Homo sapiens (Human), UniProt O43614); assay: Human orexin 2 receptor radioligand binding; conditions: human orexin 2 receptor; averages of 2-20 runs; read-out: hOX2 Ki
Procedure: as §1
Human Orexin 2 Receptor Radioligand Binding Studies
as §2, with “HEK293 stably expressing human orexin 2 receptor (Genebank accession number NM_001526) were grown to confluency in DMEM (Hyclone, cat # SH30022), 10% FBS, 1× Pen/Strep, 1× NaPyruvate, 10 mM HEPES, 600 ug/ml G418 media on 150 cm^2 tissue culture plates, washed with 5 mM EDTA in PBS (HyClone Dulbecco's Phosphate Buffered Saline 1× with Calcium and Magnesium, Cat # SH30264.01, hereafter referred to simply as PBS) and scraped into 50 ml tubes. After” for “After”, “sec just” for “sec”, “[^3H]-EMPA” for “[^3H]-(1-(5-(2-fluoro-phenyl)-2-methyl-thiazol-4-yl)-1-((S)-2-(5-phenyl-(1,3,4)oxadiazol-2-ylmethyl)-pyrrolidin-1-yl)-methanone)”

[3] = rat orexin 1 receptor, averages of 2-20 runs, read-out: rOX1 Ki

human orexin 2 receptor, sequence (O43614 whole entry): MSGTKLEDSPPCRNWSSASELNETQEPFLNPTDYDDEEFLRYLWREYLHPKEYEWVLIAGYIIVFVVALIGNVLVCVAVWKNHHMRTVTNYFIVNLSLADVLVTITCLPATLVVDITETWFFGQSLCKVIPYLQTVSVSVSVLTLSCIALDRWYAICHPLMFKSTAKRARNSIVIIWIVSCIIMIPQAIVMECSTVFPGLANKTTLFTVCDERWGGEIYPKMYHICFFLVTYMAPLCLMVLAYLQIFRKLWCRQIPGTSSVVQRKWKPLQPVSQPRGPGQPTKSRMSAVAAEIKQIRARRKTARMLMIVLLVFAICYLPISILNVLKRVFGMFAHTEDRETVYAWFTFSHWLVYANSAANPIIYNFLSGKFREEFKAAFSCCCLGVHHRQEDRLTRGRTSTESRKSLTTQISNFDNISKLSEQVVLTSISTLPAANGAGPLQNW

SMILES | Ki [1, 3] [nM] | Ki [2] [nM] | Ki [1] [nM]
Cc1nc2sccn2c1C(=O)N1CC2CC(Oc3ccc(C(F)(F)F)cn3)C1C2 (racemic) [Example 6, (R/S)-(6-methylimidazo[2,1-b]thiazol-5-yl)(6-((5-(trifluoromethyl)pyridin-2-yl)oxy)-2-azabicyclo[2.2.1]heptan-2-yl)methanone] | > 10000 | > 10000 | –
O=C(c1cccc(F)c1-n1nccn1)N1CC2CCC1C(Oc1ccc(C(F)(F)F)cn1)C2 (racemic) [Example 249, (R/S)-(3-fluoro-2-(2H-1,2,3-triazol-2-yl)phenyl)(6-((5-(trifluoromethyl)pyridin-2-yl)oxy)-2-azabicyclo[2.2.2]octan-2-yl)methanone] | – | 758 | –
O=C(c1ccccc1-n1nccn1)N1CC2CCC1C(Nc1cnc(C(F)(F)F)cn1)C2 (racemic) [Example 254, (R/S)-(2-(2H-1,2,3-triazol-2-yl)phenyl)(6-((5-(trifluoromethyl)pyrazin-2-yl)amino)-2-azabicyclo[2.2.2]octan-2-yl)methanone] | – | 307 | 12
O=C(c1cccc(F)c1-n1nccn1)N1CC2CCC1C(Nc1cnc(C(F)(F)F)cn1)C2 (racemic) [Example 255, (R/S)-(3-fluoro-2-(2H-1,2,3-triazol-2-yl)phenyl)(6-((5-(trifluoromethyl)pyrazin-2-yl)amino)-2-azabicyclo[2.2.2]octan-2-yl)methanone] | – | 1000 | –
O=C(c1c(F)cccc1-c1ncccn1)N1C[C@H]2C[C@@H](Oc3ccc(C(F)(F)F)cn3)[C@@H]1C2 [Example 38, (2-fluoro-6-(pyrimidin-2-yl)phenyl)((1S,4R,6R)-6-((5-(trifluoromethyl)pyridin-2-yl)oxy)-2-azabicyclo[2.2.1]heptan-2-yl)methanone] | – | 633 | –
COc1cccc(-c2ccn[nH]2)c1C(=O)N1C[C@H]2C[C@@H](Oc3ccc(C(F)(F)F)cn3)[C@@H]1C2 [Example 39, (2-methoxy-6-(1H-pyrazol-5-yl)phenyl)((1S,4R,6R)-6-((5-(trifluoromethyl)pyridin-2-yl)oxy)-2-azabicyclo[2.2.1]heptan-2-yl)methanone] | 72 | – | –
COc1cccc(-c2ncccn2)c1C(=O)N1C[C@H]2C[C@@H](Oc3ccc(C(F)(F)F)cn3)[C@@H]1C2 [Example 40, (2-methoxy-6-(pyrimidin-2-yl)phenyl)((1S,4R,6R)-6-((5-(trifluoromethyl)pyridin-2-yl)oxy)-2-azabicyclo[2.2.1]heptan-2-yl)methanone] | 15 | – | –
O=C(c1cc(F)ccc1-n1nccn1)N1C[C@H]2C[C@@H](Nc3ccc(C(F)(F)F)cn3)[C@@H]1C2 [Example 57, (5-fluoro-2-(2H-1,2,3-triazol-2-yl)phenyl)((1S,4S,6R)-6-((5-(trifluoromethyl)pyridin-2-yl)amino)-2-azabicyclo[2.2.1]heptan-2-yl)methanone] | 5 | 225 | –
O=C(c1cccc(F)c1-c1ncccn1)N1C[C@H]2C[C@@H](Oc3ncccc3C(F)(F)F)[C@@H]1C2 [Example 96, (3-fluoro-2-(pyrimidin-2-yl)phenyl)((1S,4R,6R)-6-((3-(trifluoromethyl)pyridin-2-yl)oxy)-2-azabicyclo[2.2.1]heptan-2-yl)methanone] | 320 | 1700 | –
O=C(c1ccccc1-n1nccn1)N1C[C@H]2C[C@@H](Oc3ccccn3)[C@@H]1C2 [Example 102, (2-(2H-1,2,3-triazol-2-yl)phenyl)((1S,4R,6R)-6-(pyridin-2-yloxy)-2-azabicyclo[2.2.1]heptan-2-yl)methanone] | 404 | 1600 | –
Cc1ccc(C(=O)N2C[C@H]3C[C@@H](Oc4ccccn4)[C@@H]2C3)c(-n2nccn2)n1 [Example 103, (6-methyl-2-(2H-1,2,3-triazol-2-yl)pyridin-3-yl)((1S,4R,6R)-6-(pyridin-2-yloxy)-2-azabicyclo[2.2.1]heptan-2-yl)methanone] | > 10000 | > 10000 | –
O=C(c1cccc(F)c1-c1ncccn1)N1C[C@H]2C[C@@H](Oc3ccccn3)[C@@H]1C2 [Example 104, (3-fluoro-2-(pyrimidin-2-yl)phenyl)((1S,4R,6R)-6-(pyridin-2-yloxy)-2-azabicyclo[2.2.1]heptan-2-yl)methanone] | 497 | 5000 | –
Cc1ccc(-n2nccn2)c(C(=O)N2C[C@H]3C[C@@H](Oc4ccc(F)cn4)[C@@H]2C3)n1 [Example 119, ((1S,4R,6R)-6-((5-fluoropyridin-2-yl)oxy)-2-azabicyclo[2.2.1]heptan-2-yl)(6-methyl-3-(2H-1,2,3-triazol-2-yl)pyridin-2-yl)methanone] | 262 | 3600 | –
Cc1cnc(O[C@@H]2C[C@H]3C[C@@H]2N(C(=O)c2nc(C)ccc2-n2nccn2)C3)nc1 [Example 132, (6-methyl-3-(2H-1,2,3-triazol-2-yl)pyridin-2-yl)((1S,4R,6R)-6-((5-methylpyrimidin-2-yl)oxy)-2-azabicyclo[2.2.1]heptan-2-yl)methanone] | 425 | 6800 | –
Cc1cnc(O[C@@H]2C[C@H]3C[C@@H]2N(C(=O)c2ncc(C)cc2-c2ncccn2)C3)nc1 [Example 134, (5-methyl-3-(pyrimidin-2-yl)pyridin-2-yl)((1S,4R,6R)-6-((5-methylpyrimidin-2-yl)oxy)-2-azabicyclo[2.2.1]heptan-2-yl)methanone] | 668 | > 10000 | –
CCc1cnc(O[C@@H]2C[C@H]3C[C@@H]2N(C(=O)c2nc(C)ccc2-n2nccn2)C3)nc1 [Example 136, ((1S,4R,6R)-6-((5-ethylpyrimidin-2-yl)oxy)-2-azabicyclo[2.2.1]heptan-2-yl)(6-methyl-3-(2H-1,2,3-triazol-2-yl)pyridin-2-yl)methanone] | 380 | 4700 | –
CCc1cnc(O[C@@H]2C[C@H]3C[C@@H]2N(C(=O)c2nc(C)ccc2-c2ncccn2)C3)nc1 [Example 138, ((1S,4R,6R)-6-((5-ethylpyrimidin-2-yl)oxy)-2-azabicyclo[2.2.1]heptan-2-yl)(6-methyl-3-(pyrimidin-2-yl)pyridin-2-yl)methanone] | 300 | 2700 | –
Cc1ccc(-n2nccn2)c(C(=O)N2C[C@H]3C[C@@H](Oc4ccc(C(F)(F)F)nn4)[C@@H]2C3)n1 [Example 140, (6-methyl-3-(2H-1,2,3-triazol-2-yl)pyridin-2-yl)((1S,4R,6R)-6-((6-(trifluoromethyl)pyridazin-3-yl)oxy)-2-azabicyclo[2.2.1]heptan-2-yl)methanone] | 330 | 7700 | –
Cc1ccc(-c2ncccn2)c(C(=O)N2C[C@H]3C[C@@H](Oc4ccc(C(F)(F)F)nn4)[C@@H]2C3)n1 [Example 142, (6-methyl-3-(pyrimidin-2-yl)pyridin-2-yl)((1S,4R,6R)-6-((6-(trifluoromethyl)pyridazin-3-yl)oxy)-2-azabicyclo[2.2.1]heptan-2-yl)methanone] | 376 | 7900 | –
O=C(c1cccc(F)c1-n1nccn1)N1C[C@@H]2CC[C@H]1[C@H](Nc1cnc(C(F)(F)F)cn1)C2 [Example 274, (3-fluoro-2-(2H-1,2,3-triazol-2-yl)phenyl)((1S,4R,6R)-6-((5-(trifluoromethyl)pyrazin-2-yl)amino)-2-azabicyclo[2.2.2]octan-2-yl)methanone] | – | 534 | –
COc1cccc(-n2nccn2)c1C(=O)N1C[C@H]2C[C@@H](Oc3ccc(C(F)(F)F)cn3)[C@@H]1C2 [Example 289, (2-methoxy-6-(2H-1,2,3-triazol-2-yl)phenyl)((1S,4R,6R)-6-((5-(trifluoromethyl)pyridin-2-yl)oxy)-2-azabicyclo[2.2.1]heptan-2-yl)methanone] | – | 207 | –
